Molecular target: T1, HCMV polymerase (Human cytomegalovirus, UniProt P08546)
T1 construct: made in house; host or cells: SF-9 insect cells infected with recombinant baculovirus
Experiment: HCMV polymerase assay (scintillation proximity assay)
Format: biochemical
Settings: percentage of inhibition at 25 μM concentration in CMV polymerase assay
How it was run: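 Baculovirus/SF-9-expressed HCMV polymerase in 5.4 mM HEPES pH 7.5, 11.7 mM KCl, 4.5 mM MgCl2, 0.36 mg/ml BSA, 90 nM 3H-dTTP, with or without 2 mM CHAPS. Started with 6 nM biotinylated poly(dA)-oligo(dT), 30 min at 25 or 37 °C, EDTA-stopped, read by streptavidin-SPA counting; % inhibition at 25 μM.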

T1 sequence (P08546 whole entry): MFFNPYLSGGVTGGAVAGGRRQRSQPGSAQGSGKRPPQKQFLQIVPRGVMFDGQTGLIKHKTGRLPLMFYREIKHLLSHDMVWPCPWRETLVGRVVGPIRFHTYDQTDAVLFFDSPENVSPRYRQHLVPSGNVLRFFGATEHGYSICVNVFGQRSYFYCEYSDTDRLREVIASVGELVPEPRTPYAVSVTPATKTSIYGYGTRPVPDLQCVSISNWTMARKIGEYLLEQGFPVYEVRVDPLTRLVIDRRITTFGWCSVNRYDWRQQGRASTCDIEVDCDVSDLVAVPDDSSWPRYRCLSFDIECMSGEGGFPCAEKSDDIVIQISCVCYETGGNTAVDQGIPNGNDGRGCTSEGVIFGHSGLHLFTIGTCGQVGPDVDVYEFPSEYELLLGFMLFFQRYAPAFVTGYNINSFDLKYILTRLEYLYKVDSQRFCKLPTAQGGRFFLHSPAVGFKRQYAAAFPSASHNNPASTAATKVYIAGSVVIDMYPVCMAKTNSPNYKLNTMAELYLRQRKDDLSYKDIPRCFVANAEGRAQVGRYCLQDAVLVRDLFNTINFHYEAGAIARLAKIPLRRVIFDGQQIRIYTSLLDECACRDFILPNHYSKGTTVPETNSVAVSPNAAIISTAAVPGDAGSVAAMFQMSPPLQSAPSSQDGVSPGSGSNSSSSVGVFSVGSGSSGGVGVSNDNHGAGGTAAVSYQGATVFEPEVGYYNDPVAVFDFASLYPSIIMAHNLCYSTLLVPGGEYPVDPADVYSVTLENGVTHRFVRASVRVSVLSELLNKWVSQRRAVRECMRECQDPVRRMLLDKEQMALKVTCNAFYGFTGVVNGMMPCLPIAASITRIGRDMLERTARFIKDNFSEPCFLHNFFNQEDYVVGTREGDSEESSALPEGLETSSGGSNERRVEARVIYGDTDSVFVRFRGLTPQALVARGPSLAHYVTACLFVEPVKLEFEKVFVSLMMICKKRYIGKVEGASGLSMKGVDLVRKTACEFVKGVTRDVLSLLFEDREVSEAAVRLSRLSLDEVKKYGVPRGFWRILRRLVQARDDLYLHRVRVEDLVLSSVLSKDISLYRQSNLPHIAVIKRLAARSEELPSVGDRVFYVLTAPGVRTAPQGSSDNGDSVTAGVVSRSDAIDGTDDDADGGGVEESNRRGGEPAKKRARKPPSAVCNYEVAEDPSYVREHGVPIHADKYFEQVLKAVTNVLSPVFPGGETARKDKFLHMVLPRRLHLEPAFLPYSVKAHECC

Row | SMILES | inhibition at 25 µM [%]
1 | NS(=O)(=O)c1ccc(CCNc2nnc(NC(=O)CCCCCl)s2)cc1 [compound 390, N-(5-{[4-(aminosulfonyl)phenethyl]amino}-1,3,4-thiadiazol-2-yl)-5-chloropentanamide] | 26.3
2 | CCCCCCCC/C=C/CCCCCCCC(=O)Nc1nnc(NCCc2c[nH]cn2)s1 [compound 391, (E)-N-(5-{[2-(1H-imidazol-4-yl)ethyl]amino}-1,3,4-thiadiazol-2-yl)-9-octadecenamide] | 26.2
3 | CC(C)(C)CNc1nnc(NC(=O)c2c(Cl)cccc2Cl)s1 [compound 392, 2,6-dichloro-N-[5-(neopentylamino)-1,3,4-thiadiazol-2-yl]benzamide] | 26.2
4 | Cc1ccc(C(=O)Nc2nnc(NCCNc3ccccc3)s2)cc1 [compound 393, N-{5-[(2-anilinoethyl)amino]-1,3,4-thiadiazol-2-yl}-4-methylbenzamide] | 26.1
5 | COc1ccccc1C(=O)Nc1nnc(NCCNc2ccccc2)s1 [compound 394, N-{5-[(2-anilinoethyl)amino]-1,3,4-thiadiazol-2-yl}-2-methoxybenzamide] | 26
6 | Cc1ccc(C(=O)Nc2nnc(NCCCN3CCCC3=O)s2)cc1 [compound 395, 4-methyl-N-(5-{[3-(2-oxo-1-pyrrolidinyl)propyl]amino}-1,3,4-thiadiazol-2-yl)benzamide] | 25.9
7 | CC(C)c1cc(C(C)C)c(C(=O)Nc2nnc(NCCc3cccs3)s2)c(C(C)C)c1 [compound 396, 2,4,6-triisopropyl-N-(5-{[2-(2-thienyl)ethyl]amino}-1,3,4-thiadiazol-2-yl)benzamide] | 25.9
8 | O=C(/C=C/c1ccccc1Cl)Nc1nnc(NCCN2CCCC2)s1 [compound 397, (E)-3-(2-chlorophenyl)-N-(5-{[2-(1-pyrrolidinyl)ethyl]amino}-1,3,4-thiadiazol-2-yl)-2-propenamide] | 25.9
9 | NS(=O)(=O)c1ccc(CNc2nnc(NC(=O)c3ccc(C(F)(F)F)cc3)s2)cc1 [compound 398, N-(5-{[4-(aminosulfonyl)benzyl]amino}-1,3,4-thiadiazol-2-yl)-4-(trifluoromethyl)benzamide] | 25.9
10 | CC(C)c1cc(C(C)C)c(C(=O)Nc2nnc(NCc3cccnc3)s2)c(C(C)C)c1 [compound 399, 2,4,6-triisopropyl-N-{5-[(3-pyridinylmethyl)amino]-1,3,4-thiadiazol-2-yl}benzamide] | 25.8
11 | CC(=O)NCCNc1nnc(NC(=O)/C=C/c2ccccc2)s1 [compound 400, (E)-N-(5-{[2-(acetylamino)ethyl]amino}-1,3,4-thiadiazol-2-yl)-3-phenyl-2-propenamide] | 25.8
12 | CC(C)c1cc(C(C)C)c(C(=O)Nc2nnc(NCc3ccc(F)cc3)s2)c(C(C)C)c1 [compound 401, N-{5-[(4-fluorobenzyl)amino]-1,3,4-thiadiazol-2-yl}-2,4,6-triisopropylbenzamide] | 25.5
13 | O=C(Nc1nnc(NCc2cccc3ccccc23)s1)c1ccc(I)cc1 [compound 402, 4-iodo-N-{5-[(1-naphthylmethyl)amino]-1,3,4-thiadiazol-2-yl}benzamide] | 25.5
14 | CC1(C)C2CC[C@@H](CNc3nnc(NC(=O)c4cc5ccccc5s4)s3)C1C2 (stereo partly drawn) [compound 403, N-[5-({[(2R)-6,6-dimethylbicyclo[3.1.1]hept-2-yl]methyl}amino)-1,3,4-thiadiazol-2-yl]-1-benzothiophene-2-carboxamide] | 25.3
15 | O=C(Nc1nnc(NC2CCc3ccccc32)s1)c1ccc([N+](=O)[O-])o1 (stereo not shown) [compound 404, N-[5-(2,3-dihydro-1H-inden-1-ylamino)-1,3,4-thiadiazol-2-yl]-5-nitro-2-furamide] | 25.2
16 | O=C(Nc1nnc(NCC2CCCO2)s1)c1cc2ccccc2s1 (stereo not shown) [compound 405, N-{5-[(tetrahydro-2-furanylmethyl)amino]-1,3,4-thiadiazol-2-yl}-1-benzothiophene-2-carboxamide] | 25
17 | CCSCCNc1nnc(NC(=O)c2ccc(C(F)(F)F)cc2)s1 [compound 406, N-(5-{[2-(ethylsulfanyl)ethyl]amino}-1,3,4-thiadiazol-2-yl)-4-(trifluoromethyl)benzamide] | 25
18 | CC(C)(C)OC(=O)CCNc1nnc(NC(=O)c2ccc(C(F)(F)F)cc2)s1 [compound 407, tert-butyl 3-[(5-{[4-(trifluoromethyl)benzoyl]amino}-1,3,4-thiadiazol-2-yl)amino]propanoate] | 25
19 | O=C(Nc1nnc(NCCNc2ccccc2)s1)c1ccc(Cl)c(Cl)c1 [compound 408, N-{5-[(2-anilinoethyl)amino]-1,3,4-thiadiazol-2-yl}-3,4-dichlorobenzamide] | 24.9
20 | CC(C)c1cc(C(C)C)c(C(=O)Nc2nnc(NCC3CCCCC3)s2)c(C(C)C)c1 [compound 409, N-{5-[(cyclohexylmethyl)amino]-1,3,4-thiadiazol-2-yl}-2,4,6-triisopropylbenzamide] | 24.9

Row | SMILES | inhibition at 25 µM [%]
21 | CCCCCCCCCCCNc1nnc(NC(=O)c2c(Cl)cccc2Cl)s1 [compound 410, 2,6-dichloro-N-[5-(undecylamino)-1,3,4-thiadiazol-2-yl]benzamide] | 24.9
22 | O=C(Nc1nnc(NCCc2ccccc2)s1)c1cccc([N+](=O)[O-])c1 [compound 411, 3-nitro-N-[5-(phenethylamino)-1,3,4-thiadiazol-2-yl]benzamide] | 24.8
23 | CC(=O)NCCNc1nnc(NC(=O)c2cc3ccccc3s2)s1 [compound 412, N-(5-{[2-(acetylamino)ethyl]amino}-1,3,4-thiadiazol-2-yl)-1-benzothiophene-2-carboxamide] | 24.7
24 | O=C(Nc1nnc(NCCCCc2ccccc2)s1)c1cccc([N+](=O)[O-])c1 [compound 413, 3-nitro-N-{5-[(4-phenylbutyl)amino]-1,3,4-thiadiazol-2-yl}benzamide] | 24.7
25 | COc1ccccc1C(=O)Nc1nnc(NCc2ccc3c(c2)OCO3)s1 [compound 414, N-{5-[(1,3-benzodioxol-5-ylmethyl)amino]-1,3,4-thiadiazol-2-yl}-2-methoxybenzamide] | 24.7
26 | O=C(Nc1nnc(NCCc2ccccc2)s1)c1ccc(I)cc1 [compound 415, 4-iodo-N-[5-(phenethylamino)-1,3,4-thiadiazol-2-yl]benzamide] | 24.6
27 | O=C(Nc1nnc(NCc2ccc(Cl)c(Cl)c2)s1)c1ccc(F)cc1F [compound 416, N-{5-[(3,4-dichlorobenzyl)amino]-1,3,4-thiadiazol-2-yl}-2,4-difluorobenzamide] | 24.5
28 | O=C(Nc1nnc(NCc2cccnc2)s1)c1ccc(Cl)c(Cl)c1 [compound 417, 3,4-dichloro-N-{5-[(3-pyridinylmethyl)amino]-1,3,4-thiadiazol-2-yl}benzamide] | 24.4
29 | O=C(Nc1nnc(NC2CCCCCC2)s1)c1ccc(Cl)c(Cl)c1 [compound 418, 3,4-dichloro-N-[5-(cycloheptylamino)-1,3,4-thiadiazol-2-yl]benzamide] | 24.4
30 | O=C(Nc1nnc(NCCCN2CCCC2=O)s1)c1ccc(Br)cc1 [compound 419, 4-bromo-N-(5-{[3-(2-oxo-1-pyrrolidinyl)propyl]amino}-1,3,4-thiadiazol-2-yl)benzamide] | 24.3
31 | CC(C)(C)OC(=O)CCNc1nnc(NC(=O)c2ccc(Cl)c(Cl)c2)s1 [compound 420, tert-butyl 3-({5-[(3,4-dichlorobenzoyl)amino]-1,3,4-thiadiazol-2-yl}amino)propanoate] | 24.1
32 | O=C(/C=C/c1ccccc1)Nc1nnc(NCc2cccnc2)s1 [compound 421, (E)-3-phenyl-N-{5-[(3-pyridinylmethyl)amino]-1,3,4-thiadiazol-2-yl}-2-propenamide] | 24
33 | CN1CCN(CCCNc2nnc(NC(=O)/C=C/c3ccccc3Cl)s2)CC1 [compound 422, (E)-3-(2-chlorophenyl)-N-(5-{[3-(4-methylpiperazino)propyl]amino}-1,3,4-thiadiazol-2-yl)-2-propenamide] | 24
34 | O=C(Nc1nnc(NCc2ccc(F)cc2)s1)c1ccc(F)cc1F [compound 423, 2,4-difluoro-N-{5-[(4-fluorobenzyl)amino]-1,3,4-thiadiazol-2-yl}benzamide] | 23.8
35 | CC(C)c1cc(C(C)C)c(C(=O)Nc2nnc(NCc3cccs3)s2)c(C(C)C)c1 [compound 424, 2,4,6-triisopropyl-N-{5-[(2-thienylmethyl)amino]-1,3,4-thiadiazol-2-yl}benzamide] | 23.6
36 | O=C(Nc1nnc(NCc2cccs2)s1)c1ccc(I)cc1 [compound 425, 4-iodo-N-{5-[(2-thienylmethyl)amino]-1,3,4-thiadiazol-2-yl}benzamide] | 23.5
37 | CC(C)(C)OC(=O)CCNc1nnc(NC(=O)/C=C/c2ccccc2Cl)s1 [compound 426, tert-butyl 3-[(5-{[(E)-3-(2-chlorophenyl)-2-propenoyl]amino}-1,3,4-thiadiazol-2-yl)amino]propanoate] | 23.5
38 | O=C(Nc1nnc(NCCCN2CCCC2=O)s1)c1ccc(F)cc1F [compound 427, 2,4-difluoro-N-(5-{[3-(2-oxo-1-pyrrolidinyl)propyl]amino}-1,3,4-thiadiazol-2-yl)benzamide] | 23.4
39 | COc1ccccc1C(=O)Nc1nnc(NC2CCCc3ccccc32)s1 (stereo not shown) [compound 428, 2-methoxy-N-[5-(1,2,3,4-tetrahydro-1-naphthalenylamino)-1,3,4-thiadiazol-2-yl]benzamide] | 23.3
40 | COc1ccccc1C(=O)Nc1nnc(NCCCCc2ccccc2)s1 [compound 429, 2-methoxy-N-{5-[(4-phenylbutyl)amino]-1,3,4-thiadiazol-2-yl}benzamide] | 23.2

Reference: US6150385A, “1,3,4-thiadiazoles useful for the treatment of CMV infections” (Pharmacia & Upjohn Company, priority 1999, dated 2000)
